From patent US7612087B2, “Heterocyclic compounds as inhibitors of beta-lactamases” (Novexel, priority 2002, dated 2009)

What was measured:
[1] = molecular target: T1, β-lactamase TEM1 (Escherichia coli, UniProt P62593); assay: Inhibition of isolated β-lactamase Tem-1 (Nitrocefin hydrolysis); format: biochemical, E.coli 250HT21; settings: 100 μM Nitrocefin, 50 mM sodium phosphate buffer pH7.0, 37° C.
T1 construct: The β-lactamases are isolated from bacterial strains which are resistant to penicillins and cephalosporins; endogenous in cells; host or cells: E. coli 250HT21 (natural producer; French-press lysate, 100,000 g supernatant)
Method in brief: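 TEM-1 from soluble extract of E. coli 250HT21, normalized enzyme, 100 μM Nitrocefin in 50 mM sodium phosphate pH 7.0 at 37 °C. Initial-rate hydrolysis read kinetically at 485 nm, with and without 5 min enzyme–inhibitor preincubation. CI50 from 6 or 8 concentrations in duplicate.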

[2] = molecular target: T2, β-lactamase P99 (Enterobacter cloacae, UniProt P05364); assay: biochemical; settings: 100 μM Nitrocefin, 50 mM sodium phosphate buffer pH7.0, 37° C.; read-out: IC50 nM/P99
T2 construct: The β-lactamases are isolated from bacterial strains which are resistant to penicillins and cephalosporins; endogenous in cells; host or cells: Enterobacter cloacae 293HT6 (natural producer; French-press lysate, 100,000 g supernatant)
Method in brief: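 P99 β-lactamase, taken from the soluble fraction of an Enterobacter cloacae 293HT6 lysate, was assayed at 37° C. in 50 mM sodium phosphate buffer pH7.0 with 100 μM Nitrocefin as the chromogenic substrate. Hydrolysis was followed kinetically at 485 nm at initial speed, with and without a 5 mn enzyme–inhibitor preincubation. Inhibitors were tested at 6 or 8 concentrations in duplicate, and IC50 was fitted with GraFit.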

[3] = tested on: E. coli 250CF1 (Tem3); assay: microbe, parasite or virus in culture; format: cell-based; settings: compound at 5 mg/l, 24 hours at 37° C.; for MIC of Cefotaxime in combination with the compound: Trial 4, 250CF1 E. coli Tem3; for MIC of Piperacillin in combination with the compound: Trial 4, 250CF1 Tem3
Description: (§1) The operation is carried out as follows, using the so-called micro-dilution in liquid medium method.
(§2) A series of concentrations of the β-lactamine is prepared in the presence of a constant concentration (5 mg/l) of the product to be studied, each is then seeded with various bacterial strains.
(§3) After incubation for 24 hours in a heating chamber at 37° C., the growth inhibition is evaluated by the absence of any bacterial development, which allows the minimal inhibitory concentrations (MIC) for each strain to be determined, expressed in milligrams/l.

[4] = tested on: E. cloacae 293HT6 (Class C); assay: MIC, micro-dilution in liquid medium, β-lactamine with product at 5 mg/l; format: cell-based; settings: compound at 5 mg/l, 24 hours at 37° C.; for MIC of Piperacillin in combination with the compound: Trial 9, 293HT6 Class; for MIC of Cefotaxime in combination with the compound: Trial 9, 293HT6 E. cloacae Class C
Description: as §1, §2, §3

[5] = tested on: E. coli 250BE1 (SHV4); assay: as above; format: cell-based; settings: compound at 5 mg/l, 24 hours at 37° C.; for MIC of Cefotaxime in combination with the compound: Trial 7, 250BE1 E. coli SHV4; for MIC of Piperacillin in combination with the compound: Trial 7, 250BE1 SHV4
Description: as §1, §2, §3

[6] = tested on: E. coli 250HT21 (Tem1); assay: as above; format: cell-based; settings: compound at 5 mg/l, 24 hours at 37° C.; for MIC of Cefotaxime in combination with the compound: Trial 2, 250HT21 E. coli Tem1; for MIC of Piperacillin in combination with the compound: Trial 2, 250HT21 Tem1
Description: as §1, §2, §3

[7] = tested on: E. coli 250HT22 (Tem2); assay: as above; format: cell-based; settings: compound at 5 mg/l, 24 hours at 37° C.; for MIC of Cefotaxime in combination with the compound: Trial 3, 250HT22 E. coli Tem2; for MIC of Piperacillin in combination with the compound: Trial 3, 250HT22 Tem2
Description: as §1, §2, §3

[8] = tested on: E. coli 250HT23 (Class D); assay: as above; format: cell-based; settings: compound at 5 mg/l, 24 hours at 37° C.; for MIC of Piperacillin in combination with the compound: Trial 8, 250HT23 Class D; for MIC of Cefotaxime in combination with the compound: Trial 8, 250HT23 E. coli Class D
Description: as §1, §2, §3

[9] = tested on: E. coli 250HT26 (SHV1); assay: as above; format: cell-based; settings: compound at 5 mg/l, 24 hours at 37° C.; for MIC of Cefotaxime in combination with the compound: Trial 6, 250HT26 E. coli SHV1; for MIC of Piperacillin in combination with the compound: Trial 6, 250HT26 SHV1
Description: as §1, §2, §3

[10] = tested on: E. coli 250SJ1 (Tem7); assay: as above; format: cell-based; settings: compound at 5 mg/l, 24 hours at 37° C.; for MIC of Cefotaxime in combination with the compound: Trial 5, 250SJ1 E. coli Tem7; for MIC of Piperacillin in combination with the compound: Trial 5, 250SJ1 Tem7
Description: as §1, §2, §3

[11] = tested on: P. aeruginosa 391HT7 (PSE); assay: as above; format: cell-based; settings: compound at 5 mg/l, 24 hours at 37° C.; for MIC of Cefotaxime in combination with the compound: Trial 11, 391HT7 P. aeruginosa PSE; for MIC of Piperacillin in combination with the compound: Trial 11, 391HT7 PSE
Description: as §1, §2, §3

[12] = tested on: P. aeruginosa 391HT8 (PSE); assay: as above; format: cell-based; settings: compound at 5 mg/l, 24 hours at 37° C.; for MIC of Cefotaxime in combination with the compound: Trial 12, 391HT8 P. aeruginosa PSE; for MIC of Piperacillin in combination with the compound: Trial 12, 391HT8 PSE
Description: as §1, §2, §3

[13] = tested on: S. aureus 011GO66 (PeniR); assay: as above; format: cell-based; settings: compound at 5 mg/l, 24 hours at 37° C.; for MIC of Cefotaxime in combination with the compound: Trial 1, 011GO66 S. aureus PeniR; for MIC of Piperacillin in combination with the compound: Trial 1, 011GO66 peniR
Description: as §1, §2, §3

[14] = tested on: Serratia 301HT6; assay: as above; format: cell-based; settings: compound at 5 mg/l; Trial 10, 301HT6 Serratia; 24 hours at 37° C.
Description: as §1, §2, §3

T1 sequence (P62593 24-286 limits assumed): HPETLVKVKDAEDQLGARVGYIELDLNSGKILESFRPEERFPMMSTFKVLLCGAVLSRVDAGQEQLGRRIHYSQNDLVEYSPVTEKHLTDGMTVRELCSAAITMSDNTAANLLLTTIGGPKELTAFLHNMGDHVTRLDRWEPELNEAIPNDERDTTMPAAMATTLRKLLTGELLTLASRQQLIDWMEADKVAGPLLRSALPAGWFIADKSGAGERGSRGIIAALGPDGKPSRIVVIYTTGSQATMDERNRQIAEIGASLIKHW
T2 sequence (P05364 21-381): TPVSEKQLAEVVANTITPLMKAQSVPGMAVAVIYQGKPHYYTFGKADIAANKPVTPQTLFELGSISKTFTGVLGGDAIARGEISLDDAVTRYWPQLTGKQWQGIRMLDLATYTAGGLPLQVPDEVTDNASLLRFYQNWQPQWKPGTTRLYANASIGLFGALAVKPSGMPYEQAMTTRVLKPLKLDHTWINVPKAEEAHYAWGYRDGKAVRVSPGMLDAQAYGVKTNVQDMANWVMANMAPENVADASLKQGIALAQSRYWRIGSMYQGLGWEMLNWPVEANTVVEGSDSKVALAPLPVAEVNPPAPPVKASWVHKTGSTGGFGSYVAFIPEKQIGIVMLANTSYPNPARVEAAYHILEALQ

Compound	IC50 [1]	IC50 [2]	MIC of Cefotaxime in combination with the compound [3]	MIC of Piperacillin in combination with the compound [3]	MIC of Piperacillin in combination with the compound [4]	MIC of Cefotaxime in combination with the compound [4]	MIC of Cefotaxime in combination with the compound [5]	MIC of Piperacillin in combination with the compound [5]	MIC of Cefotaxime in combination with the compound [6]	MIC of Piperacillin in combination with the compound [6]	MIC of Cefotaxime in combination with the compound [7]	MIC of Piperacillin in combination with the compound [7]	MIC of Piperacillin in combination with the compound [8]	MIC of Cefotaxime in combination with the compound [8]	MIC of Cefotaxime in combination with the compound [9]	MIC of Piperacillin in combination with the compound [9]	MIC of Cefotaxime in combination with the compound [10]	MIC of Piperacillin in combination with the compound [10]	MIC of Cefotaxime in combination with the compound [11]	MIC of Piperacillin in combination with the compound [11]	further results
O=C(NCCc1cccnc1)[C@H]1CC[C@@H]2CN1C(=O)N2OS(=O)(=O)[O-].[Na+] (relative stereo) [Example 36, sodium salt of trans-7-oxo-N-[2-(3-pyridinyl)ethyl]-6-(sulphooxy)-1,6-diazabicyclo[3.2.1]octane-2-carboxamide]	23 nM	110 nM	0.3 µg/mL	40 µg/mL	20 µg/mL	20 µg/mL	0.3 µg/mL	>40 µg/mL	<=0.04 μg/ml	5 µg/mL	<=0.04 μg/ml	40 µg/mL	20 µg/mL	<=0.04 μg/ml	<=0.04 μg/ml	20 µg/mL	<=0.04 μg/ml	20 µg/mL	40 µg/mL	>40 µg/mL	MIC of Cefotaxime in combination with the compound [12]: 40 µg/mL; MIC of Piperacillin in combination with the compound [12]: >40 µg/mL; MIC of Cefotaxime in combination with the compound [13]: 1.2 µg/mL; MIC of Piperacillin in combination with the compound [13]: 1.2 µg/mL; MIC of Cefotaxime in combination with the compound [14]: 0.08 µg/mL; MIC of Piperacillin in combination with the compound [14]: 1.2 µg/mL
O=C(NCCc1ccncc1)[C@H]1CC[C@@H]2CN1C(=O)N2OS(=O)(=O)[O-].[Na+] (relative stereo) [Example 37, sodium salt of trans-7-oxo-N-[2-(4-pyridinyl)ethyl]-6-(sulphooxy)-1,6-diazabicyclo[3.2.1]octane-2-carboxamide]	29 nM	160 nM	0.3 µg/mL	40 µg/mL	40 µg/mL	>40 µg/mL	0.6 µg/mL	>40 µg/mL	<=0.04 μg/ml	2.5 µg/mL	<=0.04 μg/ml	>40 µg/mL	40 µg/mL	<=0.04 μg/ml	<=0.04 μg/ml	20 µg/mL	0.08 µg/mL	>40 µg/mL	20 µg/mL	>40 µg/mL	MIC of Cefotaxime in combination with the compound [12]: 20 µg/mL; MIC of Piperacillin in combination with the compound [12]: >40 µg/mL; MIC of Cefotaxime in combination with the compound [13]: 1.2 µg/mL; MIC of Piperacillin in combination with the compound [13]: 0.6 µg/mL; MIC of Cefotaxime in combination with the compound [14]: 0.08 µg/mL; MIC of Piperacillin in combination with the compound [14]: 2.5 µg/mL
O=C(NCCc1ccccn1)[C@H]1CC[C@@H]2CN1C(=O)N2OS(=O)(=O)[O-].[Na+] (relative stereo) [Example 38, sodium salt of trans-7-oxo-N-[2-(2-pyridinyl)ethyl]-6-(sulphooxy)-1,6-diazabicyclo[3.2.1]octane-2-carboxamide]	35 nM	77 nM	0.3 µg/mL	20 µg/mL	40 µg/mL	20 µg/mL	0.3 µg/mL	>40 µg/mL	<=0.04 μg/ml	5 µg/mL	<=0.04 μg/ml	>40 µg/mL	>40 µg/mL	<=0.04 μg/ml	<=0.04 μg/ml	40 µg/mL	<=0.04 μg/ml	>40 µg/mL	40 µg/mL	>40 µg/mL	MIC of Cefotaxime in combination with the compound [12]: 40 µg/mL; MIC of Piperacillin in combination with the compound [12]: >40 µg/mL; MIC of Cefotaxime in combination with the compound [13]: 1.2 µg/mL; MIC of Piperacillin in combination with the compound [13]: 0.6 µg/mL; MIC of Cefotaxime in combination with the compound [14]: 0.08 µg/mL; MIC of Piperacillin in combination with the compound [14]: 1.2 µg/mL
NC(=O)c1cccc(NC(=O)[C@H]2CC[C@@H]3CN2C(=O)N3OS(=O)(=O)[O-])c1.[Na+] (relative stereo) [Example 39, sodium salt of trans-N-[3-(aminocarbonyl)phenyl]-7-oxo-6-(sulphooxy)-1,6-diazabicyclo[3.2.1]octane-2-carboxamide]	31 nM	50 nM	0.08 µg/mL	40 µg/mL	20 µg/mL	1.2 µg/mL	0.08 µg/mL	20 µg/mL	<=0.04 μg/ml	2.5 µg/mL	<=0.04 μg/ml	20 µg/mL	10 µg/mL	<=0.04 μg/ml	<=0.04 μg/ml	40 µg/mL	<=0.04 μg/ml	>40 µg/mL	20 µg/mL	>40 µg/mL	MIC of Cefotaxime in combination with the compound [12]: 20 µg/mL; MIC of Piperacillin in combination with the compound [12]: >40 µg/mL; MIC of Cefotaxime in combination with the compound [13]: 2.5 µg/mL; MIC of Piperacillin in combination with the compound [13]: 1.2 µg/mL; MIC of Cefotaxime in combination with the compound [14]: <=0.04 μg/ml; MIC of Piperacillin in combination with the compound [14]: 0.6 µg/mL
